The record followed here is patent publication US20100261708A1 (BOEHRINGER INGELHEIM INTERNATIONAL GMBH, priority 2007, published 2010).

The target in the first experiment is T1, human CB2R (Homo sapiens, UniProt P34972).
T1 construct: host or cells: CHO cells
T1 sequence (P34972 whole entry): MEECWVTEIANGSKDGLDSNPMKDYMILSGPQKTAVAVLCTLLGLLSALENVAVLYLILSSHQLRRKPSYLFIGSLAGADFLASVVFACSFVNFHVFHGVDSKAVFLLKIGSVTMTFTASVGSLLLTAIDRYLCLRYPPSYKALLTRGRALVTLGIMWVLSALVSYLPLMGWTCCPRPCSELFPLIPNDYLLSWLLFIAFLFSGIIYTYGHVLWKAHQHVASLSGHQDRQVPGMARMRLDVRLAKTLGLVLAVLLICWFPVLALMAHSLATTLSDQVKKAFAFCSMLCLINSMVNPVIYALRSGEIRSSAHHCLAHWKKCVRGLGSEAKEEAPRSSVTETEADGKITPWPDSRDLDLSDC
The experiment in a line: CB2R mediated modulation of cAMP synthesis. The experiment is classed as cell-based.
Conditions: not given
The method, then: B. CB2R Mediated Modulation of cAMP Synthesis:
Compounds of the invention were evaluated for their CB2 agonist or inverse agonistic activity in accordance with the following experimental method.
CHO cells expressing human CB2R (Euroscreen) were plated at a density of 5000 cells per well in 384 well plates and incubated overnight at 37° C. After removing the media, the cells were treated with test compounds diluted in stimulation buffer containing 1 mM IBMX, 0.25% BSA and 10 uM Forskolin. The assay was incubated for 30 minutes at 37° C. Cells were lysed and the cAMP concentration was measured using DiscoverX-XS cAMP kit, following the manufacturer's protocol. In this setting, agonists will decrease forskolin induced production of cAMP while inverse agonists will further increase forskolin induced production of cAMP. EC50 of agonists were calculated as follows. The maximal amount of cAMP produced by forskolin compared to the level of cAMP inhibited by 1 uM CP55940 is defined as 100%. […] Data was analyzed using a four-parameter logistic model. (Model 205 of XLfit 4.0).
The compound `CC(C)(C)c1ccc2oc(N3CCCN(C(=O)c4ccc(Cl)cc4)CC3)nc2c1` [Example 3, [4-(5-tert-Butyl-benzooxazol-2-yl)-[1,4]diazepan-1-yl]-(4-chloro-phenyl)-methanone] returned a concentration for a half-maximal effect (EC50) of 0.14 nM.
The compound `CCc1cnc(N2CCCN(C(=O)Nc3cc(C(C)(C)C)on3)CC2)nc1` [Example 79, 4-(5-Ethyl-pyrimidin-2-yl)-[1,4]diazepane-1-carboxylic acid (5-tert-butyl-isoxazol-3-yl)-amide] showed an EC50 of 6 nM.
`O=C(C1CCOCC1)N1CCCN(c2nc3cc(C(F)(F)F)ccc3s2)CC1` [Example 65] came in with a concentration giving a half-maximal response (EC50) of 35 nM.
For the compound `CC(C)(C)c1cc(NC(=O)N2CCCN(c3ncc(Cl)cc3Cl)CC2)no1` [Example 21, 4-(3,5-Dichloro-pyridin-2-yl)-[1,4]diazepane-1-carboxylic acid (5-tert-butyl-isoxazol-3-yl)-amide], it took 44 nM to reach a half-maximal effect (EC50).
`O=C(c1ccc(Cl)cc1)N1CCCN(c2nc3ccc(Cl)cc3s2)CC1` [Example 9, [4-(6-Chloro-benzothiazol-2-yl)-[1,4]diazepan-1-yl]-(4-chloro-phenyl)-methanone] displayed an EC50 of 30 nM.
Compound `Cc1nc(NC(=O)N2CCCN(c3ncc(C(F)(F)F)cc3Cl)CC2)sc1C(C)(C)C` [Example 14, 4-(3-Chloro-5-trifluoromethyl-pyridin-2-yl)-[1,4]diazepane-1-carboxylic acid (5-tert-butyl-4-methyl-thiazol-2-yl)-amide] yielded an EC50 of 0.94 nM.

The same experiment, now with this note: read-out: CB2 CAMP @EC50.
`O=C(C1CCOCC1)N1CCCN(c2ncc(CN3CCOCC3)s2)CC1` [Example 54, [4-(5-Morpholin-4-ylmethyl-thiazol-2-yl)-[1,4]diazepan-1-yl]-(tetrahydro-pyran-4-yl)-methanone]: the EC50 worked out at 14 nM.
Still for that read-out and setting: the figure for `Cc1ccc(Cl)c2sc(N3CCCN(C(=O)N4CCOCC4)CC3)nc12` [Example 39, [4-(7-Chloro-4-methyl-benzothiazol-2-yl)-[1,4]diazepan-1-yl]-morpholin-4-yl-methanone] is 2 nM; for `O=C(c1ccc(Cl)cc1)N1CCCN(c2nc(-c3ccccc3)ns2)CC1` [Example 11, (4-Chloro-phenyl)-[4-(3-phenyl-[1,2,4]thiadiazol-5-yl)-[1,4]diazepan-1-yl]-methanone] it is 5 nM.
Same read-out and setting: the figure for `O=C(N1CCOCC1)N1CCCN(c2nc3cc(Cl)ccc3o2)CC1` [Example 72, [4-(5-Chloro-benzooxazol-2-yl)-[1,4]diazepan-1-yl]-morpholin-4-yl-methanone] is 490 nM.
As for `Cc1csc2ncnc(N3CCCN(C(=O)N4CCOCC4)CC3)c12` [Example 86, [4-(5-Methyl-thieno[2,3-d]pyrimidin-4-yl)-[1,4]diazepan-1-yl]-morpholin-4-yl-methanone], the EC50 stood at 45.2 nM.
On to `CC(C)(C)c1ccc2oc(N3CCCN(C(=O)C4CCC(F)(F)CC4)CC3)nc2c1` [Example 4, [4-(5-tert-Butyl-benzooxazol-2-yl)-[1,4]diazepan-1-yl]-(4,4-difluoro-cyclohexyl)-methanone], for which the EC50 was 0.017 nM.
On to `O=C(C1CCOCC1)N1CCCN(c2nc3cc(C(F)(F)F)ccc3o2)CC1` [Example 5, (Tetrahydro-pyran-4-yl)-[4-(5-trifluoromethyl-benzooxazol-2-yl)-[1,4]diazepan-1-yl]-methanone], for which the EC50 was 43 nM.
On to `O=C(C1CCOCC1)N1CCCN(c2nc3cc(-c4ccccc4)ccc3o2)CC1` [Example 71, [4-(5-Phenyl-benzooxazol-2-yl)-[1,4]diazepan-1-yl]-(tetrahydro-pyran-4-yl)-methanone], for which the EC50 was found to be 77 nM.
Consider `N#Cc1cnc(N2CCCN(C(=O)C3CCOCC3)CC2)s1` [Example 34, 2-[4-(Tetrahydro-pyran-4-carbonyl)-[1,4]diazepan-1-yl]-thiazole-5-carbonitrile], for which the EC50 came to 40 nM.
Take `Cc1csc(NC(=O)N2CCCN(c3ncc(C(F)(F)F)cc3Cl)CC2)n1` [Example 6, 4-(3-Chloro-5-trifluoromethyl-pyridin-2-yl)-[1,4]diazepane-1-carboxylic acid (4-methyl-thiazol-2-yl)-amide]: the EC50 came to 30 nM.
As to `Cn1nc(C(C)(C)C)cc1NC(=O)N1CCCN(c2ncc(Cl)cc2Cl)CC1` [Example 28, 4-(3,5-Dichloro-pyridin-2-yl)-[1,4]diazepane-1-carboxylic acid (5-tert-butyl-2-methyl-2H-pyrazol-3-yl)-amide], the EC50 is 500 nM.
As to `Cc1c(Cl)ccc2sc(N3CCCN(C(=O)C4CCOCC4)CC3)nc12` [Example 48, [4-(5-Chloro-4-methyl-benzothiazol-2-yl)-[1,4]diazepan-1-yl]-(tetrahydro-pyran-4-yl)-methanone], the EC50 worked out at 3 nM.
Consider `Cc1cc(Cl)cc2sc(N3CCCN(C(=O)C4CCOCC4)CC3)nc12` [Example 42, [4-(6-Chloro-4-methyl-benzothiazol-2-yl)-[1,4]diazepan-1-yl]-(tetrahydro-pyran-4-yl)-methanone], for which the EC50 is 221 nM.
Still for that read-out and setting: the figure for `O=C(C1CCC(O)CC1)N1CCCN(c2nc3cc(C(F)(F)F)ccc3o2)CC1` (stereo not shown) [Example 32, (4-Hydroxy-cyclohexyl)-[4-(5-trifluoromethyl-benzooxazol-2-yl)-[1,4]diazepan-1-yl]-methanone] is 19 nM.
On the same count and under the same terms, next, `Cc1ccc(Cl)c2sc(N3CCCN(C(=O)C4CCOCC4)CC3)nc12` [Example 43, [4-(7-Chloro-4-methyl-benzothiazol-2-yl)-[1,4]diazepan-1-yl]-(tetrahydro-pyran-4-yl)-methanone]: 114 nM; `O=C(C1CCOCC1)N1CCCN(c2nc(-c3ccccc3)cs2)CC1` [Example 53, [4-(4-Phenyl-thiazol-2-yl)-[1,4]diazepan-1-yl]-(tetrahydro-pyran-4-yl)-methanone]: 217 nM; `Cc1c(Cl)ccc2sc(N3CCCN(C(=O)N4CCOCC4)CC3)nc12` [Example 38, [4-(5-Chloro-4-methyl-benzothiazol-2-yl)-[1,4]diazepan-1-yl]-morpholin-4-yl-methanone]: 204 nM.
Still for that read-out and setting: the figure for `CC(C)(C)SCCNC(=O)N1CCCN(c2ncc(C(F)(F)F)cc2Cl)CC1` [Example 15, 4-(3-Chloro-5-trifluoromethyl-pyridin-2-yl)-[1,4]diazepane-1-carboxylic acid (2-tert-butylsulfanyl-ethyl)-amide] is 21 nM; for `Cc1cc(C)c2sc(N3CCCN(C(=O)C4CCOCC4)CC3)nc2c1` [Example 47, [4-(5,7-Dimethyl-benzothiazol-2-yl)-[1,4]diazepan-1-yl]-(tetrahydro-pyran-4-yl)-methanone] it is 53 nM; for `Cc1ccnc(N2CCCN(C(=O)Nc3cc(C(C)(C)C)on3)CC2)n1` [Example 81, 4-(4-Methyl-pyrimidin-2-yl)-[1,4]diazepane-1-carboxylic acid (5-tert-butyl-isoxazol-3-yl)-amide] it is 344 nM.
Regarding `O=C(N1CCCN(c2nc3ccccc3[nH]2)CC1)N1CCS(=O)(=O)CC1` [Example 56, [4-(1H-Benzoimidazol-2-yl)-[1,4]diazepan-1-yl]-(1,1-dioxo-1λ^6-thiomorpholin-4-yl)-methanone], the EC50 was 327 nM.
The same measure, in the same setting: next, `Cc1ccc2nc(N3CCCN(C(=O)C4CCOCC4)CC3)sc2c1` [Example 64, [4-(6-Methyl-benzothiazol-2-yl)-[1,4]diazepan-1-yl]-(tetrahydro-pyran-4-yl)-methanone]: 110 nM.
Regarding `O=C(C1CCOCC1)N1CCCN(c2nc3ccc(Cl)cc3o2)CC1` [Example 70, [4-(6-Chloro-benzooxazol-2-yl)-[1,4]diazepan-1-yl]-(tetrahydro-pyran-4-yl)-methanone], the EC50 was 180 nM.
On to `O=C(C1CCC(F)(F)CC1)N1CCCN(c2nc3cc(C(F)(F)F)ccc3o2)CC1` [Example 67, (4,4-Difluoro-cyclohexyl)-[4-(5-trifluoromethyl-benzooxazol-2-yl)-[1,4]diazepan-1-yl]-methanone], for which the EC50 was determined as 10 nM.
On to `Cc1ccc(C)c2sc(N3CCCN(C(=O)C4CCOCC4)CC3)nc12` [Example 46, [4-(4,7-Dimethyl-benzothiazol-2-yl)-[1,4]diazepan-1-yl]-(tetrahydro-pyran-4-yl)-methanone], for which the EC50 was 445 nM.
For `CCC(C)c1cc(NC(=O)N2CCCN(c3ncc(C(F)(F)F)cc3Cl)CC2)n(C)n1` (stereo not shown) [Example 68, 4-(3-Chloro-5-trifluoromethyl-pyridin-2-yl)-[1,4]diazepane-1-carboxylic acid (5-sec-butyl-2-methyl-2H-pyrazol-3-yl)-amide], the EC50 worked out at 14 nM.
With `FC(F)(F)c1cnc(N2CCCN(c3nc4cc(C(F)(F)F)ccc4o3)CC2)c(Cl)c1` [Example 49, 2-[4-(3-Chloro-5-trifluoromethyl-pyridin-2-yl)-[1,4]diazepan-1-yl]-5-trifluoromethyl-benzooxazole], the EC50 was determined as 54 nM.
`CC(C)(C)c1cc(NC(=O)N2CCCN(c3nccc(C(F)(F)F)n3)CC2)no1` [Example 23, 4-(4-Trifluoromethyl-pyrimidin-2-yl)-[1,4]diazepane-1-carboxylic acid (5-tert-butyl-isoxazol-3-yl)-amide]: the EC50 stood at 333 nM.
